# From patent publication US20220089578A1, “COMPOUNDS AS GLP-1R AGONISTS” (Terns Pharmaceuticals, Inc., priority 2020, published 2022)
# Target: human GLP-1R (Homo sapiens, UniProt P43220)
# Assay: GLP-1R Cell Assay 1: cAMP Hunter CHO-K1 GLP1R Gs cell line, HitHunter cAMP assay
# Assay type: cell-based
# Details: Table 2; cAMP Hunter CHO-K1 GLP1R Gs cells; percent activity normalized to Exendin-4
# Outline: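 Luminescent enzyme-fragment-complementation immunoassay quantified cellular cAMP after 30-60 min compound exposure at 37 °C in HBSS/10 mM HEPES. Data from duplicate runs were normalised to Exendin-4 and fitted nonlinearly for EC50.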
# human GLP-1R, sequence (P43220 24-463): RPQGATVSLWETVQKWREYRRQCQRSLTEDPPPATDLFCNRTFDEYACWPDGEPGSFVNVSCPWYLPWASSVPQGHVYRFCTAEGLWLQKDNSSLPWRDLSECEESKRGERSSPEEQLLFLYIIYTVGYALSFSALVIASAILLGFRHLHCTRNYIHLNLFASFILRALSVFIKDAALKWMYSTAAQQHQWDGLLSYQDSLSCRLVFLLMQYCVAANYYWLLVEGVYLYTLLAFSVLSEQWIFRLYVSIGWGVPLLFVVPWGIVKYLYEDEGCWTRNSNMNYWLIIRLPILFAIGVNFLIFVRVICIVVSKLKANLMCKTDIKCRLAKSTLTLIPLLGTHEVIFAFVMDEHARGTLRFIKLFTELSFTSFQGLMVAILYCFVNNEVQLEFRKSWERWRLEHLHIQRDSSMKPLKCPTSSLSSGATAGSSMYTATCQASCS
row,EC50,Compound
1,4.88 nM,"N#Cc1ccc(COc2nn(C3CCN(Cc4nc5ccc(C(=O)O)cc5n4C[C@@H]4CCO4)CC3)cc2C(F)F)c(F)c1 [Compound 135, (S)-2-((4-(3-((4-cyano-2-fluorobenzyl)oxy)-4-(difluoromethyl)-1H-pyrazol-1-yl)piperidin-1-yl)methyl)-1-(oxetan-2-ylmethyl)-1H-benzo[d]imidazole-6-carboxylic acid]"
2,152 nM,"O=C(O)c1ccc2nc3n(c2c1)CCOC[C@@H]3N1CCC(c2cccc(OCc3ccccc3)n2)CC1 [Compound 94, (R)-5-(4-(6-(benzyloxy)pyridin-2-yl)piperidin-1-yl)-1,2,4,5-tetrahydrobenzo[4,5]imidazo[1,2-d][1,4]oxazepine-9-carboxylic acid]"
3,0.0329 nM,"CCn1cncc1Cn1c(CN2CCC(c3cccc(OCc4nc5ccccc5s4)n3)CC2)nc2ccc(C(=O)O)cc21 [Compound 125, 2-((4-(6-(benzo[d]thiazol-2-ylmethoxy)pyridin-2-yl)piperidin-1-yl)methyl)-1-((1-ethyl-1H-imidazol-5-yl)methyl)-1H-benzo[d]imidazole-6-carboxylic acid]"
4,17.3 nM,"N#Cc1ccc(COc2cccc(C3CCN([C@H]4CCCCn5c4nc4ccc(C(=O)O)cc45)CC3)n2)c(F)c1 [Compound 91, (S)-6-(4-(6-((4-cyano-2-fluorobenzyl)oxy)pyridin-2-yl)piperidin-1-yl)-7,8,9,10-tetrahydro-6H-benzo[4,5]imidazo[1,2-a]azepine-2-carboxylic acid]"
5,22.9 nM,"CCc1cn(C2CCN(Cc3nc4ccc(C(=O)O)cc4n3C[C@@H]3CCO3)CC2)nc1OCc1ccc(C#N)cc1F [Compound 124, (S)-2-((4-(3-((4-cyano-2-fluorobenzyl)oxy)-4-ethyl-1H-pyrazol-1-yl)piperidin-1-yl)methyl)-1-(oxetan-2-ylmethyl)-1H-benzo[d]imidazole-6-carboxylic acid]"
6,0.213 nM,"N#Cc1ccc2nc(COc3cccc(N4CCN(Cc5nc6ccc(C(=O)O)cc6n5C[C@@H]5CCO5)CC4)n3)sc2c1 [Compound 110, (S)-2-((4-(6-((6-cyanobenzo[d]thiazol-2-yl)methoxy)pyridin-2-yl)piperazin-1-yl)methyl)-1-(oxetan-2-ylmethyl)-1H-benzo[d]imidazole-6-carboxylic acid]"
7,43.5 nM,"N#Cc1cccc2c1CCN(c1cccc(N3CCN(Cc4nc5ccc(C(=O)O)cc5n4C[C@@H]4CCO4)CC3)n1)C2 [Compound 120, (S)-2-((4-(6-(5-cyano-3,4-dihydroisoquinolin-2(1H)-yl)pyridin-2-yl)piperazin-1-yl)methyl)-1-(oxetan-2-ylmethyl)-1H-benzo[d]imidazole-6-carboxylic acid]"
8,3.94 nM,"N#Cc1ccc(COc2nn(C3CCN(Cc4nc5ccc(C(=O)O)cc5n4C[C@@H]4CCO4)CC3)cc2Cl)c(F)c1 [Compound 102, (S)-2-((4-(4-chloro-3-((4-cyano-2-fluorobenzyl)oxy)-1H-pyrazol-1-yl)piperidin-1-yl)methyl)-1-(oxetan-2-ylmethyl)-1H-benzo[d]imidazole-6-carboxylic acid]"
9,5.11 nM,Cc1cn(C2CCN(Cc3nc4ccc(C(=O)O)cc4n3C[C@@H]3CCO3)CC2)nc1OCc1ccc(C#N)cc1F [Compound 114]
10,10.6 nM,"CC1Cc2cc(C#N)cc(F)c2CN1c1cccc(N2CCN(Cc3nc4ccc(C(=O)O)cc4n3C[C@@H]3CCO3)CC2)n1 (stereo partly drawn) [Compound 133, 2-((4-(6-(6-cyano-8-fluoro-3-methyl-3,4-dihydroisoquinolin-2(1H)-yl)pyridin-2-yl)piperazin-1-yl)methyl)-1-(((S)-oxetan-2-yl)methyl)-1H-benzo[d]imidazole-6-carboxylic acid]"

# The remaining lines, values behind:
row,Compound,EC50
1,"N#Cc1ccc(COc2cccc(C34CCN(Cc5nc6ccc(C(=O)O)cc6n5C[C@@H]5CCO5)CC3C4)n2)c(F)c1 (stereo partly drawn) [Compound 9, 2-((6-(6-((4-cyano-2-fluorobenzyl)oxy)pyridin-2-yl)-3-azabicyclo[4.1.0]heptan-3-yl)methyl)-1-((S)-oxetan-2-ylmethyl)-1H-benzo[d]imidazole-6-carboxylic acid]",0.476 nM
2,"O=C(O)c1ccc2nc(CN3CCN(c4cccc(OCc5cc6ccccc6o5)n4)CC3)n(C[C@@H]3CCO3)c2c1 [Compound 68, (S)-2-((4-(6-(benzofuran-2-ylmethoxy)pyridin-2-yl)piperazin-1-yl)methyl)-1-(oxetan-2-ylmethyl)-1H-benzo[d]imidazole-6-carboxylic acid]",2.03 nM
3,"CCn1cncc1Cn1c(CN2CC[C@@]3(c4cccc(OCc5ccc(C#N)cc5F)n4)C[C@H]3C2)nc2ccc(C(=O)O)cc21 (single isomer, unassigned) [Compound 121-P1]",0.0329 nM
4,"O=C(O)c1ccc2nc(CN3CCN(c4cccc(OCC5COC5)n4)CC3)n(C[C@@H]3CCO3)c2c1 [Compound 47, (S)-1-(oxetan-2-ylmethyl)-2-((4-(6-(oxetan-3-ylmethoxy)pyridin-2-yl)piperazin-1-yl)methyl)-1H-benzo[d]imidazole-6-carboxylic acid]",> 500 nM
5,"CC1(COc2cccc(N3CCN(Cc4nc5ccc(C(=O)O)cc5n4C[C@@H]4CCO4)CC3)n2)CC(F)(F)C1 [Compound 34, (S)-2-((4-(6-((3,3-difluoro-1-methylcyclobutyl)methoxy)pyridin-2-yl)piperazin-1-yl)methyl)-1-(oxetan-2-ylmethyl)-1H-benzo[d]imidazole-6-carboxylic acid]",333 nM
6,"NC(=O)c1cnc(COc2cccc(N3CCN(Cc4nc5ccc(C(=O)O)cc5n4C[C@@H]4CCO4)CC3)n2)nc1 [Compound 81, (S)-2-((4-(6-((5-carbamoylpyrimidin-2-yl)methoxy)pyridin-2-yl)piperazin-1-yl)methyl)-1-(oxetan-2-ylmethyl)-1H-benzo[d]imidazole-6-carboxylic acid]",207 nM
7,"O=C(O)c1ccc2nc(CN3CCN(c4ccc5ncn(Cc6ccccc6)c5n4)CC3)n(C[C@@H]3CCO3)c2c1 [Compound 28, (S)-2-((4-(3-benzyl-3H-imidazo[4,5-b]pyridin-5-yl)piperazin-1-yl)methyl)-1-(oxetan-2-ylmethyl)-1H-benzo[d]imidazole-6-carboxylic acid]",> 500 nM
8,"O=C(O)c1ccc2nc(CN3CCN(c4ccc5cn(Cc6ccccc6)nc5n4)CC3)n(C[C@@H]3CCO3)c2c1 [Compound 31, (S)-2-((4-(2-benzyl-2H-pyrazolo[3,4-b]pyridin-6-yl)piperazin-1-yl)methyl)-1-(oxetan-2-ylmethyl)-1H-benzo[d]imidazole-6-carboxylic acid]",> 500 nM
9,"CN1CCC(COc2cccc(N3CCN(Cc4nc5ccc(C(=O)O)cc5n4C[C@@H]4CCO4)CC3)n2)CC1 [Compound 37, (S)-2-((4-(6-((1-methylpiperidin-4-yl)methoxy)pyridin-2-yl)piperazin-1-yl)methyl)-1-(oxetan-2-ylmethyl)-1H-benzo[d]imidazole-6-carboxylic acid]",> 500 nM
10,"O=C(O)c1ccc2nc(CN3CCN(c4cccc(OCc5cc6ccccc6cn5)n4)CC3)n(C[C@@H]3CCO3)c2c1 [Compound 85, (S)-2-((4-(6-(isoquinolin-3-ylmethoxy)pyridin-2-yl)piperazin-1-yl)methyl)-1-(oxetan-2-ylmethyl)-1H-benzo[d]imidazole-6-carboxylic acid]",6.11 nM
11,"N#Cc1ccc(COc2cccc(C3CCN([C@@H]4CCCCn5c4nc4ccc(C(=O)O)cc45)CC3)n2)c(F)c1 [Compound 90, (R)-6-(4-(6-((4-cyano-2-fluorobenzyl)oxy)pyridin-2-yl)piperidin-1-yl)-7,8,9,10-tetrahydro-6H-benzo[4,5]imidazo[1,2-a]azepine-2-carboxylic acid]",> 500 nM

# Same assay, conditions: Table 3; cAMP Hunter CHO-K1 GLP1R Gs cells; percent activity normalized to Exendin-4
row,Compound,EC50
1,"N#Cc1ccc(CN2CCCc3ccc(C4CCN(Cc5nc6ccc(C(=O)O)cc6n5C[C@@H]5CCO5)CC4)nc32)c(F)c1 [Compound 143, (S)-2-((4-(8-(4-cyano-2-fluorobenzyl)-5,6,7,8-tetrahydro-1,8-naphthyridin-2-yl)piperidin-1-yl)methyl)-1-(oxetan-2-ylmethyl)-1H-benzo[d]imidazole-6-carboxylic acid]",> 500 nM
2,"O=C(O)c1ccc2nc(CN3CCN(c4ccc5c(n4)N(Cc4ccccc4)CCC5)CC3)n(C[C@@H]3CCO3)c2c1 [Compound 153, (S)-2-((4-(8-benzyl-5,6,7,8-tetrahydro-1,8-naphthyridin-2-yl)piperazin-1-yl)methyl)-1-(oxetan-2-ylmethyl)-1H-benzo[d]imidazole-6-carboxylic acid]",> 500 nM
3,"O=C(O)c1ccc2nc(CN3CCN(c4ccc5c(n4)N(Cc4ccccc4)CCO5)CC3)n(C[C@@H]3CCO3)c2c1 [Compound 149, (S)-2-((4-(4-benzyl-3,4-dihydro-2H-pyrido[3,2-b][1,4]oxazin-6-yl)piperazin-1-yl)methyl)-1-(oxetan-2-ylmethyl)-1H-benzo[d]imidazole-6-carboxylic acid/]",> 500 nM
4,"N#Cc1ccc(-n2ccc3c(C4CCN(Cc5nc6ccc(C(=O)O)cc6n5C[C@@H]5CCO5)CC4)cccc3c2=O)c(F)c1 [Compound 147, (S)-2-((4-(2-(4-cyano-2-fluorophenyl)-1-oxo-1,2-dihydroisoquinolin-5-yl)piperidin-1-yl)methyl)-1-(oxetan-2-ylmethyl)-1H-benzo[d]imidazole-6-carboxylic acid]",> 500 nM
5,"O=C(O)c1ccc2nc(CN3CCN(c4ccc5c(n4)N(Cc4ccccc4)C(=O)CO5)CC3)n(C[C@@H]3CCO3)c2c1 [Compound 154, (S)-2-((4-(4-benzyl-3-oxo-3,4-dihydro-2H-pyrido[3,2-b][1,4]oxazin-6-yl)piperazin-1-yl)methyl)-1-(oxetan-2-ylmethyl)-1H-benzo[d]imidazole-6-carboxylic acid]",> 500 nM
6,"O=C(O)c1ccc2nc(CN3CCN(c4ccc5c(n4)OC(c4ccccc4)CC5)CC3)n(C[C@@H]3CCO3)c2c1 (stereo partly drawn) [Compound 162, 1-(((S)-oxetan-2-yl)methyl)-2-((4-(2-phenyl-3,4-dihydro-2H-pyrano[2,3-b]pyridin-7-yl)piperazin-1-yl)methyl)-1H-benzo[d]imidazole-6-carboxylic acid]",> 500 nM
